# Measured values: patent publication US8916540B2, “Antibiotic compositions and related screening methods” (Academia Sinica, priority 2008, dated 2014)
# Like-named read-outs stand apart in the source and are kept apart here.
# Legend:
# Citrobacter freundii = details: literature citation 28; cited from earlier work
# Shigella flexneri = details: literature citation 28; cited from earlier work
# Bacillus subtilis [1] = details: literature citation 30; cited from earlier work
# Neisseria gonorrhoeae = details: literature citation 28; cited from earlier work
# Clostridium difficile [2] = details: literature citation 30; cited from earlier work
# Staphylococcus aureus [3] = details: literature citation 10; cited from earlier work
# Salmonella enterica [4] = assay: Minimal inhibitory concentration (MIC) determination; type: cell-based
# Klebsiella pneumoniae [5] = details: literature citation 28; cited from earlier work
# Escherichia coli = details: literature citation 28; cited from earlier work
# Pseudomonas aeruginosa [6] = details: literature citation 28; cited from earlier work
# Enterococcus faecium = details: literature citation 10; cited from earlier work
# Enterococcus faecalis [7] = details: literature citation 31; cited from earlier work
# Bacillus subtilis [8] = assay: Minimal inhibitory concentration (MIC) determination; type: cell-based
# Procedure: (§1) The minimal inhibitory concentration (MIC) of tested compounds was determined following the NCCLS standard. The experiments were conducted in 96-well microtiter plates using two-fold dilutions in Muller-Hilton broth with (Streptococcus pneumonia) or without blood (Bacillus subtilis, Enterococcus faecalis, Staphylococcus aureus). Exponentially growing cells at 5×10^5 cells/ml were incubated with test compounds at various concentrations.
# Streptococcus pneumoniae = assay: as above; type: cell-based
# Procedure: as §1
# Enterococcus faecalis [9] = assay: as above; type: cell-based
# Procedure: as §1
# Staphylococcus aureus [10] = assay: as above; type: cell-based
# Procedure: as §1
# [11] = biological target: T1, E. coli PBP1b TG+TP (residues 88-844) (Escherichia coli, UniProt P02919); assay: SPR moenomycin binding to truncated PBP1b variant; details: PBP without the transmembrane domain
# T1 construct: TG+TP (residues 88-844); His tag (implied by nickel chelation chromatography); made in house; host or cells: E. coli (pET vectors)
# T1 sequence (P02919 88-844): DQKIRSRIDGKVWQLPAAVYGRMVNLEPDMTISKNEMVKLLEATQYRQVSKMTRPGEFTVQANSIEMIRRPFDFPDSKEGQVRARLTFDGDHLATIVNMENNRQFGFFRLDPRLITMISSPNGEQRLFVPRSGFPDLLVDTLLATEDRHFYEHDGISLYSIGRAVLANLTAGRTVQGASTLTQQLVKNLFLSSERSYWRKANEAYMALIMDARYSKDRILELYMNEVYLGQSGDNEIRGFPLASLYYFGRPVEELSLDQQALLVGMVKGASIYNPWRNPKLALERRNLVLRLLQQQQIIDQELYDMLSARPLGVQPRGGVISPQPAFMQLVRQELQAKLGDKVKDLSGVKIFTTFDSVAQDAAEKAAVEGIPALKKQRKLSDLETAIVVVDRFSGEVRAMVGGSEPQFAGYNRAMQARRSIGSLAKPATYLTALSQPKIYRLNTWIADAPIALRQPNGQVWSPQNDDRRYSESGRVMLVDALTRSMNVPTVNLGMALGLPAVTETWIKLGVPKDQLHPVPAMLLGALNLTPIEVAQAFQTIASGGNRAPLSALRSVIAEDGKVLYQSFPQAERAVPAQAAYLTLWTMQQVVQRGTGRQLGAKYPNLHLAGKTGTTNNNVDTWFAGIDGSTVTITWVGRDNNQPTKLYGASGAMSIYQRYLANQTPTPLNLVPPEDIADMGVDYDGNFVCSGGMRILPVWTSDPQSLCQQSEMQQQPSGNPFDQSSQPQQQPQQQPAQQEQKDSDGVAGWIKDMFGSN
# Text: . Five E. coli PBP1b variants were expressed and purified: 1) full-length protein containing transmembrane, transglycosylase and transpeptidase domains (TM+TG+TP), 2) TG+TP, 3) TM+TG, 4) TG, and 5) TP (FIG. 1B).
# . FIG. 1(B) is a schematic representation of the PBP variants used for moenomycin binding studies. The full-length PBP (TM+TG+TP) contains amino acid residues 1-844 of the E. coli PBP1b P02919. TG+TP (residues 88-844), TM+TG (residues 1-409), TG (residues 195-409), and TP (residues 444-736) are truncated variants with the part of the full-length PBP1b. The moenomycin binding constant (KD) for these variants were determined using SPR.
# After immobilization of the target proteins on the sensor chip, different concentrations of moenomycin were passed through the surface and the binding affinities were determined. […].
# Purified PBP and its variants were immobilized onto CM3 chip (GE healthcare, Uppsala, Sweden) to about 1,500˜2,000 RU via amine-coupling method. […]. Immobilization and data collection were performed with BIAcore T100 (GE Healthcare, Uppsala, Sweden) at 25° C.
# [12] = biological target: PBP1b from Citrobacter freundii; assay: SPR moenomycin binding to immobilized full-length PBP; details: steady-state affinity, average values, read-out: SPR_KD
# Salmonella enterica [13] = details: literature citation 38; cited from earlier work
# Clostridium difficile [14] = assay: Minimal inhibitory concentration (MIC) determination; type: cell-based
# Klebsiella pneumoniae [15] = assay: as above; type: cell-based
# [16] = biological target: PBP2a from Enterococcus faecalis; assay: SPR moenomycin binding to immobilized full-length PBP; details: steady-state affinity, average values, read-out: SPR_KD
# Pseudomonas aeruginosa [17] = assay: Minimal inhibitory concentration (MIC) determination; type: cell-based
substance,measurement,setting,value
Moenomycin A [Compound 1],Reported values MIC,Citrobacter freundii,352 µM
same,Reported values MIC,Shigella flexneri,27.5 to 110 µM
same,Reported values MIC,Bacillus subtilis [1],0.07 to 0.43 µM
same,Reported values MIC,Neisseria gonorrhoeae,1.69 µM
same,Reported values MIC,Clostridium difficile [2],220 to 440 µM
same,Reported values MIC,Staphylococcus aureus [3],0.02 to 0.12 µM
same,MIC,Salmonella enterica [4],160 µM
same,Reported values MIC,Klebsiella pneumoniae [5],13.75 to 27.5 µM
same,Reported values MIC,Escherichia coli,55 to 110 µM
same,Reported values MIC,Pseudomonas aeruginosa [6],55 to 110 µM
same,Reported values MIC,Enterococcus faecium,>40.5 µM
same,Reported values MIC,Enterococcus faecalis [7],0.1 µM
same,MIC,"Bacillus subtilis [8]; B. subtilis ATCC23857, Muller-Hilton broth, 18 h to 24 h, 37° C., read-out: MIC B. subtilis (ATCC23857)",0.33 µM
same,MIC,Bacillus subtilis [8]; Bacillus subtilis (Table 1),0.3 to 0.6 µM
same,MIC,"Streptococcus pneumoniae; S. pneumoniae ATCC49619, Muller-Hilton broth with blood, 18 h to 24 h, 37° C., read-out: MIC S. pneumoniae (ATCC49619)",0.33 µM
same,MIC,Streptococcus pneumoniae; Streptococcus pneumoniae (Table 1),0.625 µM
same,MIC,"Enterococcus faecalis [9]; E. faecalis ATCC29212, Muller-Hilton broth, 18 h to 24 h, 37° C., read-out: MIC E. faecalis (ATCC29212)",0.04 µM
same,MIC,Enterococcus faecalis [9]; Enterococcus faecalis (Table 1),0.075 to 0.3 µM
same,MIC,"Staphylococcus aureus [10]; S. aureus ATCC29213, Muller-Hilton broth, 18 h to 24 h, 37° C., read-out: MIC S. aureus (ATCC29213)",<0.01 µM
same,MIC,Staphylococcus aureus [10]; Staphylococcus aureus (Table 1),0.075 µM
same,moenomycin binding activity of TG+TP variant relative to full-length PBP1b (fold lower),[11],about 5 fold
same,moenomycin binding activity of TG+TP variant relative to full-length PBP1b (fold lower),[11]; listed as Moe A,decreased five-fold
same,Kd,[12],728 nM
same,Reported values MIC,Salmonella enterica [13],13.75 to 110 µM
same,MIC,Clostridium difficile [14],>160 µM
same,MIC,Klebsiella pneumoniae [15],80 µM
same,Kd,[16],619 nM
same,MIC,Pseudomonas aeruginosa [17],40 µM
